Experimental data from paper PMC2361176, “Inhibitory effects of retinoic acid metabolism blocking agents (RAMBAs) on the growth of human prostate cancer cells and LNCaP prostate tumour xenografts in SCID mice” (British Journal of Cancer, 2006).
Entries after “also recorded” stand apart in the source; their conditions may differ.

Experiments:
[1] = system: LNCaP tumour xenographs; test: In vivo antitumour study, LNCaP human prostate carcinoma xenograft; parameters: species or system male SCID mice; conditions: 0.033 mmol kg−1 once daily; for reduction in tumour growth compared to control: 6 weeks, P<0.05
Description: All animal studies were performed according to the guidelines and approval of the Animal Care Committee of the University of Maryland School of Medicine, and were consistent with United Kingdom Coordinating Committee on Cancer Research guidelines for the welfare of animals in experimental neoplasia. The procedure was modified from [Grigoryev et al (1999)]. Briefly, LNCaP cells were trypsinised, counted, and suspended in Matrigel (2 × 10^7 cells ml^−1) (Fisher Scientific International, Inc., Hampton, NH, USA). Male SCID mice of 4–6 weeks of age were obtained from the National Cancer Institute (Frederick, MD, USA). Each mouse was inoculated s.c. with 0.1 ml of the cell suspension at two sites in the flank. The size of the tumours was determined by measuring the tumour volumes using calipers. Tumour volumes were calculated using the formula V=4/3 × π × r1^2 × r2(r1<r2). The tumours were allowed to develop to approximately 100 mm^3 before treatment. […] Tumour volumes were measured twice weekly and weights of animals were taken weekly after the initiation of treatment. The mice were subjected to 6 weeks of treatment. The mice were then killed and the tumours were excised, weighed, and stored at −80°C until analysis. Additionally, the plasma was collected with 50 IU of heparin and stored at −80°C until analysis.

[2] = system: Bcl-2; test: Western-blot analysis of Bcl-2 in LNCaP cells; assay type: cell-based, human; conditions: data not shown
Description: The Western-blot protocol described for cytokeratins 8/18 was followed with some exceptions. Cell lysates (50 μg) were separated on a 15% SDS–PAGE gel. All washing was performed using TBS containing 1% Tween 20 (TBS-T). Blocking was performed using 5% milk in TBS-T. Incubations were performed using rabbit monoclonal IgG antibody to Bad and Bcl-2 (1 : 1000), as well as horseradish peroxidase-linked anti-rabbit IgG antibodies (1 : 2000) (Cell Signaling Technology, Beverly, MA, USA).

[3] = system: LNCaP cells; test: WST-1 cell viability / LNCaP cell growth inhibition assay; assay type: cell-based; conditions: Homo sapiens, 144 h, 6 days, read-out: Cell growth inhibition, agents alone, IC50
Description: To measure cell viability, 24-well plates were coated with a 0.05% poly-L-lysine solution for 30 min. The wells were then washed with sterilised dH2O. LNCaP cells (1 × 10^4) were seeded in the plates and maintained in RPMI 1640 medium (Gibco-Invitrogen, Carlsbad, CA, USA). The cells were allowed to attach for 36 h. After attachment, fresh media was added and the cells were treated with a concentration range of either ATRA or each of the RAMBAs for 6 days. The media was changed every 3 days. On the day the assay was performed, the media was removed and 1 ml of a stock solution of WST-1 (4-[3-(4-iodophenyl)-2-(4-nitrophenyl)-2H-5-tetrazolio]-1,3-benzene disulfonate) cell proliferation reagent (Boehringer Mannheim, Indianapolis, IN, USA), diluted 1 : 10 in RPMI 1640 medium (without FBS), was added to each well. The plates were incubated at 37°C for 3 h. The media was then removed and 500 μl of DMSO was added and agitated vigorously for 5 min. The slightly red tetrazolium salt WST-1 is reduced to a dark red, water-soluble formazan product by mitochondrial dehydrogenase from living cells, which gives absorbance at a wavelength of 450 nm.

[4] = target: T1, CYP26 (Homo sapiens, UniProt O43174); test: Cellular CYP26 assay: inhibition of ATRA metabolism in intact LNCaP cells; assay type: cell-based; conditions: intact LNCaP cells pretreated with 1 μM ATRA; [11,12-3H]-ATRA substrate; HPLC
T1 construct: LNCaP cells were incubated with 1 μM ATRA for 24 h to induce the CYP26 enzyme; endogenous in cells; host or cells: LNCaP human prostate cancer cells, pre-treated with 1 μM ATRA
T1 sequence (O43174 1-497): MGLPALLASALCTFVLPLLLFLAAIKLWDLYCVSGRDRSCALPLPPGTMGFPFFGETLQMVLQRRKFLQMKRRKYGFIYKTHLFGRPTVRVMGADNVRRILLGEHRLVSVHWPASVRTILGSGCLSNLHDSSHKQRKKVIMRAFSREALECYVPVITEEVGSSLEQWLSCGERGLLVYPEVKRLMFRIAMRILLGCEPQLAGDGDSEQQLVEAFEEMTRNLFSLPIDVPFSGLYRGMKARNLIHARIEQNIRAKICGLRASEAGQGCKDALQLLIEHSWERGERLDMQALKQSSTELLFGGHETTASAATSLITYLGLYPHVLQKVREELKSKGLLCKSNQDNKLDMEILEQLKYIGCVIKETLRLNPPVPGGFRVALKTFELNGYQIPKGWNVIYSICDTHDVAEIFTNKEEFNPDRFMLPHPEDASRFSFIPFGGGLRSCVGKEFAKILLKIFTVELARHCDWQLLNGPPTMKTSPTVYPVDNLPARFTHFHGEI
Description: Following ATRA treatment, the LNCaP cells were incubated with 0.1 or 0.8 μM [11,12-^3H]-ATRA (PerkinElmer Life and Analytical Sciences, Inc., Boston, MA, USA) for 5 h. Following the 5 h incubation, the medium was collected and the cells were trypsinised and collected.

Compound	tumour growth compared to vehicle control (in words) [1]	reduction in tumour growth compared to control [1] [%]	expression of Bcl-2 [2]	IC50 [3] [µM]	IC50 [4] [µM]
CC1=C(/C=C/C(C)=C/C=C/C(C)=C/C(=O)O)C(C)(C)CCC1 [ATRA, all-trans-retinoic acid, reference compound]	statistically significantly LNCaP tumour growth inhibition	75	concentration-dependent decrease	4.3	
CC1=C(/C=C/C(C)=C/C=C/C(C)=C/C(=O)O)C(C)(C)CCC1n1ccnc1 (stereo not drawn) [VN/14-1]	ineffective; also recorded: not significantly different		concentration-dependent decrease	10	0.0065 ± 0.0015
CC1=C(/C=C/C(C)=C/C=C/C(C)=C/C(=O)Nc2ccc(O)cc2)C(C)(C)CCC1n1ccnc1 (stereo not drawn) [VN/66-1]	statistically significantly LNCaP tumour growth inhibition	44	did not effect	4.5	0.0625 ± 0.0125
CC1=C(/C=C/C(C)=C/C=C/C(C)=C\C(=O)Nc2ccc(O)cc2)C(C)(C)CCC1n1ccnc1 (stereo not drawn) [VN/69-1]	statistically significantly LNCaP tumour growth inhibition	47	did not effect	5	0.09 ± 0.0125
CC1=C(/C=C/C(C)=C/C=C/C(C)=C/C(=O)n2ccnc2)C(C)(C)CCC1n1ccnc1 (stereo not drawn) [VN/50-1]			did not effect	6	0.09 ± 0.01
